Consider two compounds from patent US20130150363A1, “Method of Treating Cancer Using a cMET and AXL Inhibitor and an ErbB Inhibitor” (GlaxoSmithKline, priority 2008, published 2013).

In test [1] the test system is NCI-H2342 lung carcinoma cells. The test is described as follows: Cell growth inhibition (CellTiter-Glo), NCI-H2342. It counts as cell-based. The note with it: Homo sapiens, NCI-H2342, 72 h, 3 days. The text has this:
(§1) Esophageal carcinoma cell line OE33 was purchased from ECACC European Collection of Cell Cultures (UK). Breast cancer cell line JIMT-1 and gastric carcinoma cell line MKN-45 were purchased from Deutsche Sammlung von Mikroorganismen and Zellkulturen GmbH (Germany); KPL-4, a human breast cancer cell line was kindly provided by Prof. J Kurebayashi (Kawasaki Medical School, Kurashiki, Japan). […] The LICR-LON-HN5 head and neck carcinoma cell line (HN5) was a gift from the Institute of Cancer Research, Surrey, U.K. HN5C12 was developed by single-cell cloning of HN5 followed by exposure to increasing concentrations of lapatinib. […] Cell growth inhibition was determined via CellTiter-Glo cell viability assays. […] BT474-J4 and HN5C12 were washed with PBS and plated in their culture media without lapatinib. […] ATP levels were determined by adding Cell Titer Glo0 (Promega), incubating for 20 minutes then the luminescent signal was read on the SpectraMax M5 plate with a 0.5 second integration time. Cell growth was calculated relative to vehicle (DMSO) treated control wells. […] y=([…]) where A is the minimum response (ymin), B is the maximum response (ymax), c is the inflection point of the curve (EC50), d is the Hill coefficient, and x is the log10 compound concentration (moles/L). CI values were calculated with the interpolated IC50 values and the mutually non-exclusive equation derived by Chou and […](a)+Db/IC50(b)+(Da×Db)/(IC50(a)×IC50(b)) where IC50(a) is the IC50 of the inhibitor A; IC50(b) is the IC50 for the inhibitor B; […] Excess Over Highest Single Agent (EOHSA) is defined as a statistically significant improvement in the combination compared to the component monotherapies. […] See Borisy et al. (2003) or Hung et al. (1993) for examples and discussion. Analysis was conducted using two-factor analysis of variance with interaction (model terms were dose of drug A, dose of drug B, and interaction between doses of drug A and B), followed by linear contrasts between each combination group and corresponding monotherapies. Analysis was conducted using SAS (version 9, provided by SAS Institute, Cary, N.C.). EOHSA at each dose was calculated as the minimum difference in average % inhibition between the combination and each monotherapy, from the appropriate ANOVA contrast. Since there are many comparisons for the % inhibition endpoint, p-value adjustment for multiple comparisons was performed. Hommel's procedure was implemented in order to improve the power while retaining […] Error Rate (FWE) control by using a sequentially rejective method. The p-values for both synergy and antagonism were calculated using this adjustment.

Test [2] relates to HOP-92 lung carcinoma cells. As to the kind of experiment: Cell growth inhibition (CellTiter-Glo), HOP-92. The note with it: Homo sapiens, HOP-92, 72 h, 3 days. It is filed as cell-based.
From the text: as §1
(In general: ATP-based viability assays read luminescence as a measure of living cells.)

Test [3] relates to SNU-16 gastric carcinoma cells. As to the kind of experiment: Cell growth inhibition (CellTiter-Glo), SNU-16. It counts as cell-based. The note with it: Homo sapiens, SNU-16, 72 h, 3 days. The text has this: (§2) Esophageal carcinoma cell line OE33 was purchased from ECACC European Collection of Cell Cultures (UK). Breast cancer cell line JIMT-1 and gastric carcinoma cell line MKN-45 were purchased from Deutsche Sammlung von Mikroorganismen and Zellkulturen GmbH (Germany); KPL-4, a human breast cancer cell line was kindly provided by Prof. J Kurebayashi (Kawasaki Medical School, Kurashiki, Japan). […] The LICR-LON-HN5 head and neck carcinoma cell line (HN5) was a gift from the Institute of Cancer Research, Surrey, U.K. HN5C12 was developed by single-cell cloning of HN5 followed by exposure to increasing concentrations of lapatinib. […] Cell growth inhibition was determined via CellTiter-Glo cell viability assays. […] ATP levels were determined by adding Cell Titer Glo0 (Promega), incubating for 20 minutes then the luminescent signal was read on the SpectraMax M5 plate with a 0.5 second integration time. Cell growth was calculated relative to vehicle (DMSO) treated control wells. […] CI values were calculated with the interpolated IC50 values and the mutually non-exclusive equation derived by Chou and […](a)+Db/IC50(b)+(Da×Db)/(IC50(a)×IC50(b)) where IC50(a) is the IC50 of the inhibitor A; IC50(b) is the IC50 for the inhibitor B; […] […] EOHSA at each dose was calculated as the minimum difference in average % inhibition between the combination and each monotherapy, from the appropriate ANOVA contrast. […]

Test [4] deals with SW48 colon carcinoma cells. The test is described as follows: Cell growth inhibition (CellTiter-Glo), SW48. It is filed as cell-based. The note with it: Homo sapiens, SW48, 72 h, 3 days.
From the text: as §2

Test [5] deals with AGS gastric carcinoma cells. As to the kind of experiment: Cell growth inhibition (CellTiter-Glo), AGS. It counts as cell-based. The note with it: Homo sapiens, 72 h, gastric_AGS, 3 days.
From the text: as §2

Test [6] has as its system ovary_SKOV3 tumor cells. As to the kind of experiment: Cell growth inhibition (CellTiter-Glo), SKOV3. It is filed as cell-based. The note with it: Homo sapiens, SK-OV-3, 72 h, 3 days. Here is the method:
Cell growth inhibition was determined via CellTiter-Glo cell viability assays. […] BT474-J4 and HN5C12 were washed with PBS and plated in their culture media without lapatinib. […] ATP levels were determined by adding Cell Titer Glo0 (Promega), incubating for 20 minutes then the luminescent signal was read on the SpectraMax M5 plate with a 0.5 second integration time. Cell growth was calculated relative to vehicle (DMSO) treated control wells. […] y=([…]) where A is the minimum response (ymin), B is the maximum response (ymax), c is the inflection point of the curve (EC50), d is the Hill coefficient, and x is the log10 compound concentration (moles/L). CI values were calculated with the interpolated IC50 values and the mutually non-exclusive equation derived by Chou and […](a)+Db/IC50(b)+(Da×Db)/(IC50(a)×IC50(b)) where IC50(a) is the IC50 of the inhibitor A; IC50(b) is the IC50 for the inhibitor B; […] Excess Over Highest Single Agent (EOHSA) is defined as a statistically significant improvement in the combination compared to the component monotherapies. […] In statistical terms, the maximum of the p-value's for the two comparisons Aq+Br vs Aq and Aq+Br vs Br should be less than or equal to an appropriate cutoff, p≦0.05. EOHSA is a common approach for evaluating drug combinations, and is an FDA criterion (21 CRF 300.50) for combination drug approval. See Borisy et al. (2003) or Hung et al. (1993) for examples and discussion. Analysis was conducted using two-factor analysis of variance with interaction (model terms were dose of drug A, dose of drug B, and interaction between doses of drug A and B), followed by linear contrasts between each combination group and corresponding monotherapies. Analysis was conducted using SAS (version 9, provided by SAS Institute, Cary, N.C.). EOHSA at each dose was calculated as the minimum difference in average % inhibition between the combination and each monotherapy, from the appropriate ANOVA contrast. Since there are many comparisons for the % inhibition endpoint, p-value adjustment for multiple comparisons was performed. Hommel's procedure was implemented in order to improve the power while retaining […] Error Rate (FWE) control by using a sequentially rejective method. The p-values for both synergy and antagonism were calculated using this adjustment.

Test [7] has as its system HCC1954 breast carcinoma cells. As to the kind of experiment: Cell growth inhibition (CellTiter-Glo), HCC1954. It is filed as cell-based. Particulars: Homo sapiens, HCC1954, 72 h, 3 days.
From the text: as §2

Test [8] concerns phosphorylation of HER2, AKT, ERK and cyclin D1 in BT474 cells. As to the kind of experiment: Western blot analysis, BT474. Particulars: BT474, 1 μM, 4 h. It is filed as cell-based, human. In general terms: In western blotting, separated proteins are transferred to a membrane and probed.
Experimental: (§3) Cells were plated at 250,000 to 500,000 per well in six-well plates (Falcon multiwell, Becton Dickinson, Franklin Lakes, N.J.). The following day, cells were treated with compounds in the growth medium containing 10% FBS. After treatment, cells were washed with cold PBS and lysed in the culture dishes using cell lysis buffer [40 mmol/L Tris-HCl (pH 7.4), 10% glycerol, 50 mmol/L beta-glycerophosphate, 5 mmol/L EGTA, 2 mmol/L EDTA, 0.35 mmol/L vanadate, 10 mmol/L NaF, and 0.3% Triton X-100] containing protease inhibitors (Complete Protease Inhibitor Tablets, Boehringer Mannheim, Indianapolis, Ind.). […] The membrane blots were rinsed with PBS and blocked in Odyssey Blocking buffer for 1 h at RT. Blots were probed with antibodies against specific proteins in blocking buffer plus 0.1% Tween 20 and incubated for 2 h at room temperature. The membranes were washed and incubated with IRDye 680 or IRDye 800 secondary antibodies at RT for 1 h in blocking buffer plus 0.1% Tween 20. The membranes were developed with Odyssey Infrared Imaging System (LI-COR Biosciences, Lincoln, Nebr.).
(§4) Cell lysate (50 μg of total protein) or proteins immunoprecipitated with anti-phospho-Tyrosine antibody were loaded in SDS-PAGE gel. The antibody against specific protein was used in the western blot analysis.
In test [9] the test system is phosphorylation of HER2, AXL, AKT, ERK and cyclin D1 in BT474-J4 cells. As to the kind of experiment: Western blot analysis, BT474-J4. The note with it: BT474-J4, 1 μM each, 4 h.
Experimental: as §3, §4

Each structure is given as a SMILES string.

For the compound `C#Cc1cccc(Nc2ncnc3cc(OCCOC)c(OCCOC)cc23)c1` [Erlotinib, N-(3-ethynylphenyl)-6,7-bis{[2-(methyloxy)ethyl]oxy}-4-quinazolinamine], the half-maximal inhibitory concentration (IC50) in [1] (lung_H2342, +HGF (2 ng/mL)) is over 10 µM; in [1] (lung_H2342, −HGF), over 10 µM; in test [2] (lung_HOP-92, +HGF (2 ng/mL)), over 10 µM; in test [2] (lung_HOP-92, −HGF) it was over 10 µM; in test [3] (gastric_SNU16, +HGF (2 ng/mL)), 9.37 µM; in test [3] (gastric_SNU16, −HGF), 6.46 µM. The IC50 was 2.62 µM in test [4] (colon_SW48, +HGF (2 ng/mL)); 2.35 µM in test [4] (colon_SW48, −HGF); over 10 µM in test [5] (+HGF (2 ng/mL)); over 10 µM in test [5] (−HGF); 5.39 µM in test [6] (ovary_SKOV3, +HGF (2 ng/mL)); 5.62 µM in test [6] (ovary_SKOV3, −HGF).
For `CS(=O)(=O)CCNCc1ccc(-c2ccc3ncnc(Nc4ccc(OCc5cccc(F)c5)c(Cl)c4)c3c2)o1` [Lapatinib, N-(3-chloro-4-{[(3-fluorophenyl)methyl]oxy}phenyl)-6-[5-({[2-(methylsulfonyl)ethyl]amino}methyl)-2-furanyl]-4-quinazolinamine], the IC50 in test [1] (lung_H2342, +HGF (2 ng/mL)) was 6.64 µM; in test [1] (lung_H2342, −HGF), 6.81 µM; in test [2] (lung_HOP-92, +HGF (2 ng/mL)), over 10 µM; in test [2] (lung_HOP-92, −HGF), over 10 µM; in [7] (breast_HCC1954, +HGF (2 ng/mL)), 5.27 µM; in [7] (breast_HCC1954, −HGF) it was 0.8 µM. Moreover, the IC50 amounted to 5.67 µM in [6] (ovary_SKOV3, +HGF (2 ng/mL)) and 5.02 µM in [6] (ovary_SKOV3, −HGF). The “downstream signaling: phosphorylation of AKT and ERK, level of cyclin D1” value in [8] is “inhibits”. For the same compound, the “phosphorylation of HER2” value in [8] and in test [9] was “inhibits” each time.

As usually defined, the IC50 is the concentration that inhibits the measured activity by half.
